Assay results as given in patent US7541353B2, “Compounds for the treatment of hepatitis C” (Bristol-Myers Squibb Company, priority 2007, dated 2009).

Tests used:
HCV NS5B = target: T1, HCV NS5B (Hepatitis C virus genotype 1b, UniProt Q9WMX2); assay: Modified HCV NS5B RdRp enzyme assay (preincubation protocol); format: biochemical
T1 construct: The cDNA encoding the NS5B protein of HCV, genotype 1b; made in house; host or cells: E. coli BL21(DE3)
Protocol: HCV NS5B RdRp cloning, expression, and purification. The cDNA encoding the NS5B protein of HCV, genotype 1b, was cloned into the pET21a expression vector. The protein was expressed with an 18 amino acid C-terminal truncation to enhance the solubility. The E. coli competent cell line BL21(DE3) was used for expression of the protein. Cultures were grown at 37° C. for ˜4 hours until the cultures reached an optical density of 2.0 at 600 nm. The cultures were cooled to 20° C. and induced with 1 mM IPTG. Fresh ampicillin was added to a final concentration of 50 μg/ml and the cells were grown overnight at 20° C.
Cell pellets (3L) were lysed for purification to yield 15-24 mgs of purified NS5B. The lysis buffer consisted of 20 mM Tris-HCl, pH 7.4, 500 mM NaCl, 0.5% triton X-100, 1 mM DTT, 1 mM EDTA, 20% glycerol, 0.5 mg/ml lysozyme, 10 mM MgCl2, 15 ug/ml deoxyribonuclease I, and Complete™ protease inhibitor tablets (Roche). After addition of the lysis buffer, frozen cell pellets were resuspended using a tissue homogenizer. To reduce the viscosity of the sample, aliquots of the lysate were sonicated on ice using a microtip attached to a Branson sonicator. The sonicated lysate was centrifuged at 100,000×g for 1 hr at 4° C. and filtered through a 0.2 μm filter unit (Corning).
The protein was purified using two sequential chromatography steps: Heparin sepharose CL-6B and polyU sepharose 4B (Pharmacia). The chromatography buffers were identical to the lysis buffer but contained no lysozyme, deoxyribonuclease I, MgCl2 or protease inhibitor and the NaCl concentration of the buffer was adjusted according to the requirements for charging the protein onto the column. Each column was eluted with a NaCl gradient which varied in length from 5-50 column volumes depending on the column type. After the final chromatography step, the resulting purity of the enzyme is >90% based on SDS-PAGE analysis. The enzyme was aliquoted and stored at −80° C.
Standard HCV NS5B RdRp enzyme assay. HCV RdRp genotype 1b assays were run in a final volume of 60 μl in 96 well plates (Corning 3600). The assay buffer is composed of 20 mM Hepes, pH 7.5, 2.5 mM KCl, 2.5 mM MgCl2, 1 mM DTT, 1.6 U RNAse inhibitor (Promega N2515), 0.01 mg/ml BSA (Sigma B6917), and 2% glycerol. All compounds were serially diluted (3-fold) in DMSO and diluted further in water such that the final concentration of DMSO in the assay was 2%. HCV RdRp genotype 1b enzyme was used at a final concentration of 28 nM. A polyA template was used at 6 nM, and a biotinylated oligo-dT12 primer was used at 180 nM final concentration. Template was obtained commercially (Amersham 27-4110). Biotinylated primer was prepared by Sigma Genosys. 3H-UTP was used at 0.6 μCi (0.29 μM total UTP). Reactions were initiated by the addition of enzyme, incubated at 30° C. for 60 min, and stopped by adding 25 μl of 50 mM EDTA containing SPA beads (4 μg/μl, Amersham RPNQ 0007). Plates were read on a Packard Top Count NXT after >1 hr incubation at room temperature.
Modified HCV NS5B RdRp enzyme assay. A modified enzyme assay was performed essentially as described for the standard enzyme assay except for the following: The biotinylated oligo dT12 primer was precaptured on streptavidin-coated SPA beads by mixing primer and beads in assay buffer and incubating at room temperature for one hour. Unbound primer was removed after centrifugation. The primer-bound beads were resuspended in 20 mM Hepes buffer, pH 7.5 and used in the assay at final concentrations of 20 nM primer and 0.67 μg/μl beads. Order of addition in the assay: enzyme (1.75 nM) was added to diluted compound followed by the addition of a mixture of template (0.36 nM), 3H-UTP (0.6 μCi, 0.29 μM), and primer-bound beads, to initiate the reaction; concentrations given are final. Reactions were allowed to proceed for 4 hours at 30° C.
IC50 values for compounds were determined using seven different [I]. […]

HCV replicon cells = assay: HCV replicon FRET assay; format: cell-based; settings: Hepatitis C virus
Protocol: FRET Assay Preparation. The HCV FRET screening assay was performed in 96-well cell culture plates. The FRET peptide (Anaspec, Inc.) (Taliani et al., Anal. Biochem. 1996, 240, 60-67) contains a fluorescence donor, EDANS, near one end of the peptide and an acceptor, DABCYL, near the other end. The fluorescence of the peptide is quenched by […] resonance energy transfer (RET) between the donor and the acceptor, but as the NS3 protease cleaves the peptide the products are released from RET quenching and the fluorescence of the donor becomes apparent. The assay reagent was made as follows: 5× cell Luciferase cell culture lysis reagent from Promega (#E153A) diluted to 1× with dH2O, NaCl added to 150 mM final, the FRET peptide diluted to 20 μM final from a 2 mM stock.
To prepare plates, HCV replicon cells, with or without a Renilla luciferase reporter gene, were trypsinized and plated in a 96-well plate with titrated test compounds added in columns 3 through 12; columns 1 and 2 contained a control compound (HCV control inhibitor), and the bottom row contained cells with DMSO only. The plates were then placed in a CO2 incubator at 37° C.
Assays. Subsequent to addition of the test compounds described above (FRET Assay Preparation), at various times the plate was removed and Alamar blue solution (Trek Diagnostics, #00-100) was added to measure cellular toxicity. After reading in a Cytoflour 4000 instrument (PE Biosystems), plates were rinsed with PBS and then used for FRET assay by the addition of 30 ul of the FRET peptide assay reagent described above (FRET Assay Preparation) per well. The plate was then placed into the Cytoflour 4000 instrument which had been set to 340 excite/490 emission, automatic mode for up to 20 cycles and the plate read in a kinetic mode. Typically, the signal to noise using an endpoint analysis after the reads was at least three-fold. Alternatively, after Alamar blue reading, plates were rinsed with PBS, then used for luciferase assay using the Promega Dual-Glo Luciferase Assay System or the Promega EnduRen Live Cell Substrate assay.
Compound analysis was performed by quantification of the relative HCV replicon inhibition and the relative cytotoxicity values. To calculate cytoxicity values, the average Alamar Blue fluorescence signals from the control wells were set as 100% non-toxic. The individual signals in each of the compound test wells were then divided by the average control signal and multiplied by 100% to determine […]. To calculate the HCV replicon inhibition values, an average background value was obtained from the two wells containing the highest amount of HCV control inhibitor at the end of the assay period. These numbers were similar to those obtained from naïve Huh-7 cells. The background numbers were then subtracted from the average signal obtained from the control wells and this number was used as 100% activity. The individual signals in each of the compound test wells were then divided by the averaged control values after background subtraction and multiplied by 100% to determine percent activity. EC50 values were calculated as the concentration which caused a 50% reduction in FRET or luciferase activity. The two numbers generated for the compound plate, percent cytoxicity and percent activity, were used to determine compounds of interest for further analysis.

T1 sequence (Q9WMX2 2420-2992): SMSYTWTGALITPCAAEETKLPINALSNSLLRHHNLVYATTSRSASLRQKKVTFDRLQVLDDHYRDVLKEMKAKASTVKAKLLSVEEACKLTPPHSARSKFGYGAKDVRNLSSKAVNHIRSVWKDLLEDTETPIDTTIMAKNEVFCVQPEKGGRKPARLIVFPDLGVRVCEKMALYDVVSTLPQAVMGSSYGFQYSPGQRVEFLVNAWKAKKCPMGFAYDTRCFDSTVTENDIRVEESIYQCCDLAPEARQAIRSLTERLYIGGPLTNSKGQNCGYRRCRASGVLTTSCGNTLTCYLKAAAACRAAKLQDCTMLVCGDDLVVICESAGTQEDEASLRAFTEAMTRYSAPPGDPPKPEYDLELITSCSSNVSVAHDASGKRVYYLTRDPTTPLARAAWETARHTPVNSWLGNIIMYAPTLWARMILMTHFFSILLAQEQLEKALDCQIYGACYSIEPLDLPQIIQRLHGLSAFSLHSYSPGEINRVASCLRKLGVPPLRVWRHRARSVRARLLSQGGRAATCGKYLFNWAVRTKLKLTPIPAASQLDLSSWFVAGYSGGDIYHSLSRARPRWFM

| Compound | IC50 (HCV NS5B) | EC50 (HCV replicon cells) |
| --- | --- | --- |
| COc1ccc2c(c1)C1CC1(C(=O)N1C3CCC1COC3)Cn1c-2c(C2CCCCC2)c2ccc(C(=O)NS(=O)(=O)N(C)C)cc21 (stereo not shown) | 4.58 to 500 nM | 4.58 to 500 nM |
| COc1ccc2c(c1)C1CC1(C(=O)N1C3CCC1CC(O)C3)Cn1c-2c(C2CCCCC2)c2ccc(C(=O)NS(=O)(=O)N(C)C)cc21 (stereo not shown) | 4.58 to 500 nM | 4.58 to 500 nM |
| COc1ccc2c(c1)C1CC1(C(=O)N1C3CCC1CC(N1CCCCC1)C3)Cn1c-2c(C2CCCCC2)c2ccc(C(=O)NS(=O)(=O)N(C)C)cc21 (stereo not shown) | 4.58 to 500 nM | 4.58 to 500 nM |
| COc1ccc2c(c1)C1CC1(C(=O)N1C3CCC1CC(C)(O)C3)Cn1c-2c(C2CCCCC2)c2ccc(C(=O)NS(=O)(=O)N(C)C)cc21 (stereo not shown) | 4.58 to 500 nM | 4.58 to 500 nM |
| COc1ccc2c(c1)C1CC1(C(=O)N1C3CCC1CC(N(C)C)C3)Cn1c-2c(C2CCCCC2)c2ccc(C(=O)NS(=O)(=O)N(C)C)cc21 (stereo not shown) | 4.58 to 500 nM | 4.58 to 500 nM |
| COc1ccc2c(c1)C1CC1(C(=O)N1C3CCC1CC(N(C)Cc1ccccc1)C3)Cn1c-2c(C2CCCCC2)c2ccc(C(=O)NS(=O)(=O)N(C)C)cc21 (stereo not shown) | 4.58 to 500 nM | 4.58 to 500 nM |
| COc1ccc2c(c1)C1CC1(C(=O)N1C3CCC1CC(N(CCN(C)C)Cc1ccccc1)C3)Cn1c-2c(C2CCCCC2)c2ccc(C(=O)NS(=O)(=O)N(C)C)cc21 (stereo not shown) | 4.58 to 500 nM | 4.58 to 500 nM |
| COc1ccc2c(c1)C1CC1(C(=O)N1C3CCC1CC(NCc1ccccc1)C3)Cn1c-2c(C2CCCCC2)c2ccc(C(=O)NS(=O)(=O)N(C)C)cc21 (stereo not shown) | 4.58 to 500 nM | 4.58 to 500 nM |
| CCNC1CC2CCC(C1)N2C(=O)C12CC1c1cc(OC)ccc1-c1c(C3CCCCC3)c3ccc(C(=O)NS(=O)(=O)N(C)C)cc3n1C2 (stereo not shown) | 4.58 to 500 nM | 4.58 to 500 nM |
| COc1ccc2c(c1)C1CC1(C(=O)N1C3CCC1CC(NCCN(C)C)C3)Cn1c-2c(C2CCCCC2)c2ccc(C(=O)NS(=O)(=O)N(C)C)cc21 (stereo not shown) | 4.58 to 500 nM | 4.58 to 500 nM |
| COc1ccc2c(c1)C1CC1(C(=O)N1C3CCC1CC3)Cn1c-2c(C2CCCCC2)c2ccc(C(=O)NS(=O)(=O)N3CCN(C)CC3)cc21 (stereo not shown) | 4.58 to 500 nM | 4.58 to 500 nM |
| COc1ccc2c(c1)C1CC1(C(=O)N1C3CCC1CC(O)(C(C)(C)C)C3)Cn1c-2c(C2CCCCC2)c2ccc(C(=O)NS(=O)(=O)N(C)C)cc21 (stereo not shown) | 4.58 to 500 nM | 4.58 to 500 nM |
| COc1ccc2c(c1)C1CC1(C(=O)N1C3CCC1CC(N(CCN(C)C)Cc1ccccc1)C3)Cn1c-2c(C2CCCCC2)c2ccc(C(=O)NS(C)(=O)=O)cc21 (stereo not shown) | 4.58 to 500 nM | 4.58 to 500 nM |
| COc1ccc2c(c1)C1CC1(C(=O)N1C3CCC1CC(C)(O)C3)Cn1c-2c(C2CCCCC2)c2ccc(C(=O)NS(=O)(=O)C(C)C)cc21 (stereo not shown) | 4.58 to 500 nM | 4.58 to 500 nM |
| COc1ccc2c(c1)C1CC1(C(=O)N1C3CCC1CC(C)(O)C3)Cn1c-2c(C2CCCCC2)c2ccc(C(=O)NS(=O)(=O)N3CCC3)cc21 (stereo not shown) | 4.58 to 500 nM | 4.58 to 500 nM |
| COc1ccc2c(c1)C1CC1(C(=O)N1C3CCC1CC(N(CCN(C)C)Cc1ccccc1)C3)Cn1c-2c(C2CCCCC2)c2ccc(C(=O)NS(=O)(=O)N3CCC3)cc21 (stereo not shown) | 4.58 to 500 nM | 4.58 to 500 nM |
| COc1ccc2c(c1)C1CC1(C(=O)N1C3CCC1CC(NCc1ccccc1)C3)Cn1c-2c(C2CCCCC2)c2ccc(C(=O)NS(=O)(=O)N3CCC3)cc21 (stereo not shown) | 4.58 to 500 nM | 4.58 to 500 nM |
| COc1ccc2c(c1)C1CC1(C(=O)N1C3CCC1CC(N(C)Cc1ccccc1)C3)Cn1c-2c(C2CCCCC2)c2ccc(C(=O)NS(=O)(=O)N3CCC3)cc21 (stereo not shown) | 4.58 to 500 nM | 4.58 to 500 nM |
| COc1ccc2c(c1)C1CC1(C(=O)N1C3CCC1CC(=O)C3)Cn1c-2c(C2CCCCC2)c2ccc(C(=O)NS(=O)(=O)C3CC3)cc21 (stereo not shown) | 4.58 to 500 nM | – |
| COc1ccc2c(c1)C1CC1(C(=O)N1C3CCC[C@@H]1COC3)Cn1c-2c(C2CCCCC2)c2ccc(C(=O)NS(=O)(=O)C(C)C)cc21 (stereo partly shown) | 4.58 to 500 nM | 4.58 to 500 nM |
| COc1ccc2c(c1)C1CC1(C(=O)N1C3CCC[C@@H]1COC3)Cn1c-2c(C2CCCCC2)c2ccc(C(=O)NS(=O)(=O)C3CCCC3)cc21 (stereo partly shown) | 4.58 to 500 nM | 4.58 to 500 nM |
| COc1ccc2c(c1)C1CC1(C(=O)N1C3COCC1COC3)Cn1c-2c(C2CCCCC2)c2ccc(C(=O)NS(=O)(=O)C3CCCCC3)cc21 (stereo not shown) | 4.58 to 500 nM | 4.58 to 500 nM |
| COc1ccc2c(c1)C1CC1(C(=O)N1C3CCC[C@@H]1COC3)Cn1c-2c(C2CCCCC2)c2ccc(C(=O)NS(=O)(=O)CC(F)(F)F)cc21 (stereo partly shown) | 4.58 to 500 nM | 4.58 to 500 nM |
| COc1ccc2c(c1)C1CC1(C(=O)N1C3COCC1COC3)Cn1c-2c(C2CCCCC2)c2ccc(C(=O)NS(=O)(=O)CCC(F)(F)F)cc21 (stereo not shown) | 4.58 to 500 nM | 4.58 to 500 nM |
| COc1ccc2c(c1)C1CC1(C(=O)N1C3COCC1COC3)Cn1c-2c(C2CCCCC2)c2ccc(C(=O)NS(=O)(=O)C3CCCC3)cc21 (stereo not shown) | 4.58 to 500 nM | 4.58 to 500 nM |
| COc1ccc2c(c1)C1CC1(C(=O)N1C3COCC1COC3)Cn1c-2c(C2CCCCC2)c2ccc(C(=O)NS(=O)(=O)CC(F)(F)F)cc21 (stereo not shown) | 4.58 to 500 nM | 4.58 to 500 nM |
| COc1ccc2c(c1)C1CC1(C(=O)N1C3CCCC1COC3)Cn1c-2c(C2CCCCC2)c2ccc(C(=O)NS(=O)(=O)CCC(F)(F)F)cc21 (stereo not shown) | 4.58 to 500 nM | 4.58 to 500 nM |
| COc1ccc2c(c1)C1CC1(C(=O)N1C3CCCC1COC3)Cn1c-2c(C2CCCCC2)c2ccc(C(=O)NS(=O)(=O)C3CCC3)cc21 (stereo not shown) | 4.58 to 500 nM | 4.58 to 500 nM |
